Results taken from patent publication US20050215544A1, “Methods of treating HIV infection” (priority 2004, published 2005).

Columns and labels:
uninfected cells = assay: Cytotoxicity assay of the drug combinations in uninfected cells (MTS); format: cell-based; conditions: combination with Compound 1 at highest concentrations tested, six days
Method: Drug Susceptibility and Cytotoxicity Assays. […] Each drug ratio consisted of an array of 3-fold serial dilutions, and was performed in quadruplicate. The plates were incubated at 37° C./5% CO2. […] On day-five post-infection, 20 μl from each well was harvested and quantitated by a reverse transcriptase (RT) assay, or in samples involving non-nucleoside RT inhibitors, an MTS assay. The PM-1 cells infected with HIV-1 Bal and used for studying the combinations with CCR5 inhibitors were incubated for six days. On day-six post-infection, 20 μl from each well was harvested, 20- and 50-fold diluted and quantitated by p24 assay. Cytotoxicity assays were performed using uninfected cells, exposed to the same drug combinations, and incubated for six days. Cell viability was determined by an MTS assay. The CC50 values were calculated by using the exponential form of the median effect equation as mentioned below for calculation of EC50.

HIV-1 LAI [1] = assay: microbe, parasite or virus in culture
Method: (§1) Virus and cell lines. The T-cell lines, MT-2 and PM-1 were obtained through the AIDS Research and Reference Reagent Program, NIAID, and were contributed by Dr. D. Richman and Dr. R. Gallo, respectively. Both cell lines were cultured in RPMI 1640 medium supplemented with 10% fetal bovine serum, 2 mM L-glutamine and sub-cultured twice a week. The LAI strain of HIV-1 was obtained from the Fred Hutchinson Cancer Research Center, and the Bal strain was from NIH. Both virus stocks were amplified and titered in MT-2 cells (LAI) and PM-1 cells (Bal) using a virus infectivity assay.
(§2) Drug Susceptibility and Cytotoxicity Assays. For drug susceptibility assays, MT-2 cells were infected with HIV-1 LAI (or PM-1 cells with HIV-1 Bal) at an MOI of 0.005, and seeded into 96-well microtiter plates ([…] cells/ml) containing serial dilutions of test compounds. […] Each drug ratio consisted of an array of 3-fold serial dilutions, and was performed in quadruplicate. The plates were incubated at 37° C./5% CO2. The MT-2 cells infected with HIV-1 LAI were incubated for 5 days. On day-five post-infection, 20 μl from each well was harvested and quantitated by a reverse transcriptase (RT) assay, or in samples involving non-nucleoside RT inhibitors, an MTS assay. The PM-1 cells infected with HIV-1 Bal and used for studying the combinations with CCR5 inhibitors were incubated for six days. On day-six post-infection, 20 μl from each well was harvested, 20- and 50-fold diluted and quantitated by p24 assay. Cytotoxicity assays were performed using uninfected cells, exposed to the same drug combinations, and incubated for six days. Cell viability was determined by an MTS assay. The CC50 values were calculated by using the exponential form of the median effect equation as mentioned below for calculation of EC50.
(§3) In this equation, Fa stands for “fraction affected,” and represents the fraction of the viral load that has been inactivated. […] ED50 is drug concentration that is expected to reduce the amount of virus by 50%, and m is a parameter that reflects the slope of the concentration-response curve.
In carrying out the combination experiments below, the EC50 for Compound 1 and each comparator compound was determined during the course of each study, and used in the subsequent data analysis.

HIV-1 LAI [2] = assay: Two-drug combination antiviral assay with Compound 1 (combination indices, Chou and Rideout); format: cell-based; conditions: combination with Compound 1; for Combination Indices at 50% HIV Inhibition (Confidence Interval) / Combination Indices at 75% HIV Inhibition (Confidence Interval) / Combination Indices at 90% HIV Inhibition (Confidence Interval): 95% CI in parenthesis; for Overall Result of two-drug combination: all ratios and inhibition levels
Method: as §1, §2
Analysis of Drug Combination Effects. For determination of CI values, drugs were diluted in a fixed ratio and multiple ratios were analyzed. The drug serial dilutions spanned a range of concentrations near the EC50 value of each compound, so that equivalent antiviral activities could be compared. Concentration-response curves were estimated for each individual drug and every combination using the median-effect equation. The equation was fit using a nonlinear regression routine (Proc Nlin) in PC SAS version 8.01 (SAS Institute Inc., SAS Version 8.01, Cary, NC: SAS Institute Inc., 1990).
as §3
To assess antiviral effects of different drug combination treatments, combination indices (CIs) were calculated according to Chou and Rideout. The combination index was computed as CI=[D]1/[Dm]1+[D]2/[Dm]2
In this equation [Dm]1 and [Dm]2 are the concentrations of drugs that would individually produce a specific level of effect, while [D]1 and [D]2 are the concentrations of drugs in combination that would produce the same level of effect.
Theoretically, additivity is implied if the CI is equal to one, synergy if the CI is less than one, and antagonism if the CI is greater than one. […] At best, we can construct a range that contains the likely values for the CI, given the noise in the data. In this report, these ranges are reported in parentheses next to each point estimate of the CI. […] If the range fell entirely above 1.0, we would infer antagonistic behavior. If the range were to include 1.0, we would infer additivity.

[3] = Human immunodeficiency virus 1, MT2, 120 h
[4] = EC50 ratio 1:1 (Compound 1 to comparator)
[5] = EC50 ratio 1:2.5 (Compound 1 to comparator)
[6] = EC50 ratio 2.5:1 (Compound 1 to comparator)
[7] = MT-2 cells infected with HIV-1 LAI, MOI 0.005, 5 days, single drug

Row | Molecule | Cytotoxicity of the drug combination (uninfected cells) | EC50 (HIV-1 LAI [1]; [3]) [nM] | Combination Indices at 50% HIV Inhibition (Confidence Interval) (HIV-1 LAI [2]; [4]) | Combination Indices at 75% HIV Inhibition (Confidence Interval) (HIV-1 LAI [2]; [4]) | Combination Indices at 90% HIV Inhibition (Confidence Interval) (HIV-1 LAI [2]; [4]) | Combination Indices at 50% HIV Inhibition (Confidence Interval) (HIV-1 LAI [2]; [5]) | Combination Indices at 75% HIV Inhibition (Confidence Interval) (HIV-1 LAI [2]; [5]) | Combination Indices at 90% HIV Inhibition (Confidence Interval) (HIV-1 LAI [2]; [5]) | Combination Indices at 50% HIV Inhibition (Confidence Interval) (HIV-1 LAI [2]; [6]) | Combination Indices at 75% HIV Inhibition (Confidence Interval) (HIV-1 LAI [2]; [6]) | Combination Indices at 90% HIV Inhibition (Confidence Interval) (HIV-1 LAI [2]; [6]) | Overall Result of two-drug combination (HIV-1 LAI [2]) | EC50 (HIV-1 LAI [1]; [7]) [nM] | Overall Result of two-drug combination (HIV-1 LAI [2]; listed as enfuvurtide)
1 | c1cc(CN2CCCNCCNCCCNCC2)ccc1CN1CCCNCCNCCCNCC1 [AMD-3100] | No significant cytotoxicity | 4 | 0.51 (0.34, 0.69) | 0.63 (0.33, 0.94) | 0.89 (0.22, 1.57) | 0.65 (0.49, 0.80) | 0.55 (0.37, 0.74) | 0.58 (0.27, 0.89) | 0.56 (0.38, 0.73) | 0.62 (0.18, 0.90) | 0.74 (0.22, 1.26) | moderate synergistic | – | –
2 | CON(Cc1ccc(F)cc1)C(=O)C=C(O)C(=O)O [Compound 2, 3-[(4-Fluorobenzyl)methoxycarbamoyl]-2-hydroxyacrylic acid] | No significant cytotoxicity | 84 | 0.42 (0.32, 0.52) | 0.49 (0.33, 0.64) | 0.57 (0.28, 0.85) | 0.38 (0.30, 0.46) | 0.42 (0.30, 0.55) | 0.48 (0.26, 0.69) | 0.46 (0.34, 0.59) | 0.66 (0.41, 0.92) | 0.96 (0.37, 1.54) | Synergistic | – | –
3 | Cc1cn([C@H]2C=C[C@@H](CO)O2)c(=O)[nH]c1=O [Stavudine] | – | 318 | 0.25 (0.18, 0.33) | 0.53 (0.32, 0.74) | 1.12 (0.38, 1.86) | 0.14 (0.10, 0.19) | 0.22 (0.13, 0.32) | 0.36 (0.10, 0.62) | 0.28 (0.24, 0.32) | 0.39 (0.32, 0.47) | 0.55 (0.38, 0.73) | Moderate- | – | –
4 | C[C@H](Cn1cnc2c(N)ncnc21)OCP(=O)(O)O [Tenofovir] | – | – | 0.11 (0.09, 0.13) | 0.22 (0.17, 0.27) | 0.54 (0.31, 0.76) | 0.13 (0.11, 0.15) | 0.23 (0.18, 0.28) | 0.50 (0.30, 0.70) | 0.16 (0.13, 0.19) | 0.22 (0.17, 0.28) | 0.38 (0.22, 0.54) | Synergistic | 13 | –
5 | Nc1ccn([C@H]2CC[C@@H](CO)O2)c(=O)n1 [Zalcitabine] | – | 12 | 0.19 (0.15, 0.23) | 0.35 (0.26, 0.45) | 0.75 (0.40, 1.09) | 0.38 (0.31, 0.45) | 0.37 (0.28, 0.47) | 0.42 (0.24, 0.61) | 0.22 (0.18, 0.25) | 0.28 (0.22, 0.34) | 0.38 (0.24, 0.52) | Synergistic | – | –
6 | enfuvirtide | No significant cytotoxicity | – | 0.17 (0.13, 0.21) | 0.42 (0.29, 0.55) | 1.03 (0.49, 1.58) | 0.14 (0.11, 0.18) | 0.30 (0.21, 0.39) | 0.65 (0.32, 0.97) | 0.26 (0.21, 0.31) | 0.46 (0.34, 0.58) | 0.82 (0.46, 1.18) | Moderate- | 6 | moderate synergistic
